Measurements taken from US5744492A, “Method for inhibiting angiogenesis” (United States of America, priority 1994, dated 1998).

How the values were obtained:
[1] = tested on: bFGF receptor; experiment: bFGF-induced tyrosine phosphorylation in HUVECs (phosphotyrosine immunoprecipitation and Western analysis); type: cell-based, human; settings: 10 μM
Description: (§1) Human umbilical vein endothelial cells (H 930) were generously supplied by Dr. Tom Maciag, American Red Cross (Gaithersburg, Md., USA) and were used between passages 9 and 14 to avoid senescence. HUVECs were grown on fibronectin-coated tissue culture plastic (200 μg/150 mm dish) in complete medium (Medium 199 (M-199) containing 5 U/mL preservative-free heparin, 25.5 μg/mL ECGS, 10% fetal bovine serum and 100 U/mL penicillin, 100 μg/mL streptomycin, and 0.25 μg/mL fungizone).
It exerts its activity through activation of the bFGF receptor kinase with subsequent autophosphorylation of its receptor as well as phosphorylation of other signaling proteins. See, Jaye, et al., Biochim. Biophys. Acta 1135:185-199 (1992). Phosphotyrosine immunoprecipitation and Western analysis were used to investigate the effect of compound 1 on bFGF-mediated tyrosine phosphorylation.
The following day, cells were exposed to bFGF, 10 ng/mL for 15 min at 37° C. Cells were quickly washed with cold DPBS, scraped from the plate and lysed with lysis buffer (50 mM Tris-HCl pH 7.6, 300 mM NaCl, 10 μg/mL aprotinin, 1 mM phenylmethylsulphonylfluoride (PMSF), 400 μM sodium orthovanadate, 400 μM EDTA, 100 mM sodium fluoride, 100 mM sodium pyrophosphate, and 0.5% Triton-X 100) for 1 hr on ice. The lysates were centrifuged at 4° C. at 1200×g for 15 minutes after which the supernatants were saved and protein concentration determined using bicinchoninic assay protein detection method. Aliquots of lysis protein ([…] per sample) were incubated with 10 μg of anti-phosphotyrosine monoclonal antibody, 4G10, pre-conjugated to protein A-sepharose beads for 1 hr at 4° C. The beads were washed three times with buffer containing 0.1% Triton X-100 and then the immunoprecipitated proteins were eluted with 2X Laemmli sample buffer and subjected to 4-12% gradient gel electrophoresis. Proteins were transferred electrically, blocked (7.5% glycine, 5% dry milk, 1% ovalbumin) for 30 min at room temperature, then washed (0.001% ovalbumin, 0.001% dry milk, 0.001% Tween-20 in phosphate-buffered saline (PBS)). […]

[2] = tested on: HUVECs; experiment: HUVEC motility (modified Boyden chamber chemotaxis); type: cell-based, human; settings: 18 hr preincubation
Description: as §1
A modified Boyden chamber system was used to determine whether compound 1 could modulate the chemotactic stimulation of endothelial cells by fibronectin, laminin, type IV collagen or thrombospondin. The particular system used has been described for tumor cell motility. See, Minniti, et al., J. Biol. Chem. 267:9000-9004 (1992). Modifications were made as to cell number, membrane pore size, and time of incubation were tested to determine optimal conditions for the HUVECs.
HUVECs were pretreated as described above for adhesion and resuspended at 2×10^6 cells/mL in M-199 containing 0.1% bovine serum albumin. Cells were seeded in the upper compartment of the chamber separated from the lower compartment by a gelatin-coated Nucleopore filter with 8μ pores. Laminin (100 μg/mL), fibronectin (30 μg/mL), type IV collagen (100 μg/mL) or thrombospondin (20 μg/mL) were diluted from stock solutions into control medium (M-199 plus 0.1% BSA) and were used as chemoattractants in the lower chamber. HUVECs were incubated with DMSO control (0.1%) or compound 1 (0.1-10 μM) for 18 hr prior to the motility assay. Compound 1 and DMSO were maintained with the cells throughout the experiment. Assays were incubated at 37° C. for 2 hours after which the filters were removed, fixed, and stained. Cell migration was quantited by counting five high power fields in triplicate pellets of migrated cells. Results are expressed as percentage of control cell migration (x±SEM, n=3).

[3] = tested on: MMP-2; experiment: Gelatin zymography of HUVEC conditioned medium, bFGF-stimulated proMMP-2 and its activated form; type: cell-based; settings: Homo sapiens, bFGF 10 ng/mL for final 24 hr, read-out: inhibition of bFGF-stimulated synthesis of proMMP-2 and its activated form
Description: as §1
Gelatin zymography was carried out as described in Brown, et al., Cancer Research 50:6184-6191 (1990). HUVECs were seeded at 1.2×10^5 /cm^2 in 25 cm^2 fibronectin-coated tissue culture flasks in complete medium containing increasing concentrations of compound 1 (0.1-10 μM) or DMSO vehicle control. After 18 hr of culture, the complete medium was removed and the cells were washed once with serum-free M-199 supplemented with 5 μg/mL bovine insulin, 5 μg/mL human transferrin and 5 ng/mL sodium selenite (ITS). A further 24 hr incubation was carried out with 3 mL of fresh ITS-containing M-199 and varying concentrations of compound 1 (0.1-10 μM) or DMSO vehicle control (0.1%). This conditioned medium was harvested and spun free of cells.
See, Rifkin, et al., J. Cell Biol. 109:1-6 (1989). […]

NC(=O)c1nnn(Cc2cc(Cl)c(C(=O)c3ccc(Cl)cc3)c(Cl)c2)c1N [Compound 1, 5-amino-1-(4-(4-chlorobenzoyl)-3,5-dichlorobenzyl)1,2,3-triazole-4-carboxamide]
effect on bFGF-stimulated tyrosine phosphorylation (in words) ([1]; 18 hr, bFGF 10 ng/mL for final 15 minutes): inhibition of bFGF-stimulated phosphorylation
effect on bFGF-stimulated tyrosine phosphorylation, including autophosphorylation of bFGF receptor (in words) ([1]; bFGF 10 ng/mL): blocked bFGF-stimulated tyrosine phosphorylation
effect on basal tyrosine phosphorylation (in words) ([1]; no bFGF): Neither DMSO control (lane 1) or compound 1 (10 μM, lane 2) altered basal tyrosine phosphorylation
inhibition of HUVEC motility towards type IV collagen (in words) ([2]; 1 μM, P2, 0.018): statistically significant dose-dependent inhibition
inhibition of HUVEC motility towards laminin (in words) ([2]; 1 μM, P2<0.009): statistically significant dose-dependent inhibition
inhibition of HUVEC motility towards all attractants (fibronectin, laminin, type IV collagen and thrombospondin) (in words) ([2]; 10 μM, p2<0.001): statistically significant dose-dependent inhibition
inhibition at 10 µM [3]: 90%
